According to ChEMBL document CHEMBL6078616, “Seven-membered N-heterocycles as approved drugs and promising leads in medicinal chemistry as well as the metal-free domino access to their scaffolds” (Eur J Med Chem, 2024):

Key:
[1] = molecular target: T1, Polyamine deacetylase HDAC10 (Homo sapiens, UniProt Q969S8); assay: Inhibition of HDAC10 (unknown origin)
T1 sequence (Q969S8 whole entry): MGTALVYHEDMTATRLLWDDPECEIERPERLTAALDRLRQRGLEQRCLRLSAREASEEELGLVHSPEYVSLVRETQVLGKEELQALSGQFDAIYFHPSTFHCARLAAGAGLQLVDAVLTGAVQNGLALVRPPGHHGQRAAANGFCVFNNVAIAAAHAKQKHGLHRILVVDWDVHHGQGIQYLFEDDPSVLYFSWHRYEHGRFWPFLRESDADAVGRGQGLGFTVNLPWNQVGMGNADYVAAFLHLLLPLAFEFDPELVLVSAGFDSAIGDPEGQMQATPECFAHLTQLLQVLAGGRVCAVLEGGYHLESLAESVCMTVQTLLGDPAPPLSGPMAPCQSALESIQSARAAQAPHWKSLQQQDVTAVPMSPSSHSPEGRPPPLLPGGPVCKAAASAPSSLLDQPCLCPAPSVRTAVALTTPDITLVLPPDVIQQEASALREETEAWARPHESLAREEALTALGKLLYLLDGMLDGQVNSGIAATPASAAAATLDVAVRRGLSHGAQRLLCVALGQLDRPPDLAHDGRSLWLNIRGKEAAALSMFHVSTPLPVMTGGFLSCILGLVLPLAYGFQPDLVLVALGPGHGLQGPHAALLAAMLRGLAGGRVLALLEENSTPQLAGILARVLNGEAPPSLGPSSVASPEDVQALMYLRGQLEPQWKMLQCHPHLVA

[2] = molecular target: Histone deacetylase 3 (Homo sapiens, UniProt O15379); assay: Inhibition of HDAC3 (unknown origin)
[3] = molecular target: T2, Histone deacetylase 11 (Homo sapiens, UniProt Q96DB2); assay: Inhibition of HDAC11 (unknown origin)
T2 sequence (Q96DB2 whole entry): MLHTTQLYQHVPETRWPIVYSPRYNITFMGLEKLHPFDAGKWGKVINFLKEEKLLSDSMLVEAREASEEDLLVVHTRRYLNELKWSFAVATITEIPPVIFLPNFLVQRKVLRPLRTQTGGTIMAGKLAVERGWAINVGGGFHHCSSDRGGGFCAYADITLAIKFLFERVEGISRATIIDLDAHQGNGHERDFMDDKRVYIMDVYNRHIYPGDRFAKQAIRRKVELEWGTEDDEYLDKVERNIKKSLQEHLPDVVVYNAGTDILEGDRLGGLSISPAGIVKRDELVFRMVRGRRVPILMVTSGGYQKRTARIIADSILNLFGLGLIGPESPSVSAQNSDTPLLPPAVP

Chain of Histone deacetylase 3 (O15379 whole entry): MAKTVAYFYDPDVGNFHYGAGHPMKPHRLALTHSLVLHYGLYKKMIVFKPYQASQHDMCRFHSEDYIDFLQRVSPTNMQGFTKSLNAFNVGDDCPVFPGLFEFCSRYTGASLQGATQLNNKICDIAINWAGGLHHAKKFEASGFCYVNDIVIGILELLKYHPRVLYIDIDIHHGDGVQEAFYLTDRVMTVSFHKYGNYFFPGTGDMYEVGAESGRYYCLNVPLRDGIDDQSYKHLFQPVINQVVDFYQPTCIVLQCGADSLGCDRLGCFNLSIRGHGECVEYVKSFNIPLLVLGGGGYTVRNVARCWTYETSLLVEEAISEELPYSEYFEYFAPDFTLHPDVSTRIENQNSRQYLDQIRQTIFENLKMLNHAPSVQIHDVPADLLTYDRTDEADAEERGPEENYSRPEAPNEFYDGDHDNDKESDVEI

- IC50 [1]: 14 µM
- IC50 [2]: 26 µM
- IC50 [3]: 540 nM
Structure (SMILES): O=C(NO)c1ccc(CN2c3ccccc3[S+]([O-])C[C@H]3CCCC[C@H]32)cc1 (stereo partly drawn)
